Assay results reported in US8026276B2, “Parenteral CCI-779 formulations containing cosolvents, an antioxidant, and a surfactant” (Wyeth LLC, priority 2002, dated 2011).

What was measured:
[1] = system: histologically diverse tumor cells; settings: cited from earlier work
human tumor xenografts = settings: nude mice; cited from earlier work
Solubility of CCI-779 = type: physicochemical
Description: A primary obstacle towards the formulation of CCI-779 as a parenteral dosage form is the poor aqueous solubility, which is less than 1 μg/ml. The drug is a non-electrolyte and approaches such as pH adjustment and salt formation are not useful for improving the aqueous solubility. […] These include ethanol, propylene glycol, polyethylene glycol and dimethylacetamide. Two problems or limitations exist with respect to the formulation of CCI-779 in these organic solvents. First, chemical instability has been noted in virtually all solvents. The instability can be due to oxidative degradation of CCI-779 or to cleavage of a lactone bond, resulting in the formation of the ring opened seco-CCI-779. Second, formulations of CCI-779 in organic solvents will precipitate upon dilution with aqueous infusion solutions, such as 0.9% Sodium Chloride Injection or 5% Dextrose Injections, or with blood. This is a primary limitation to the use of water miscible organic solvents, also referred to as cosolvents, when used as vehicles for highly water-insoluble compounds.

[2] = Stability of CCI-779 in solution with chelating agent; type: physicochemical; settings: citric acid at less than 0.01% w/v
Text: In some embodiments, components with chelating activity are included in the formulations of the invention as the sole “antioxidant component”. Typically, such metal-binding components, when acting as chelating agents are used in the lower end of the range of concentrations for the antioxidant component provided herein. […] Additionally, such chelating agents may be used in combination with other antioxidants as part of the antioxidant component of the invention. For example, an acceptable formulation may contain both citric acid and d,l-α-tocopherol. Optimal concentrations for the selected antioxidant(s) can be readily determined by one of skill in the art, based upon the information provided herein.

In the case of CO[C@H]1C[C@@H]2CC[C@@H](C)[C@@](O)(O2)C(=O)C(=O)N2CCCC[C@H]2C(=O)O[C@H]([C@H](C)C[C@@H]2CC[C@@H](OC(=O)C(C)(CO)CO)[C@H](OC)C2)CC(=O)[C@H](C)/C=C(\C)[C@@H](O)[C@@H](OC)C(=O)[C@H](C)C[C@H](C)/C=C/C=C/C=C/1C [CCI-779, rapamycin 42-ester with 3-hydroxy-2-(hydroxymethyl)-2-methylpropionic acid], the “growth of tumor cells in vitro” value [1] is given as “inhibit the growth”, the “activity against human tumor xenografts” value (human tumor xenografts) is given as “has activity” and the “solubility in water-miscible organic solvents” value (Solubility of CCI-779; ethanol, propylene glycol, polyethylene glycol, dimethylacetamide) is given as “soluble”. The “solubility in pharmaceutically acceptable vegetable oils” value (Solubility of CCI-779; vegetable oils) was “poor solubility”, the solubility (Solubility of CCI-779; water, read-out: aqueous solubility) was under 1 µg/mL and the “effect of citric acid on stability of CCI-779” value [2] was “enhanced the stability”.
